Drawing on US20230312587A1, “PTERIDINONE COMPOUNDS AND USES THEREOF” (Vertex Pharmaceutical Incorporated, priority 2018, published 2023), this text covers IC50 for 23 molecules.

The subject of this assay is β-catenin-TCF-mediated reporter transcription activity in Colo 205 cells. In words: Colo 205 reporter assay (TCF/LEF luciferase). It counts as cell-based. The following applies: Colo 205 TCF/LEF luciferase reporter, read-out: TCF reporter Colo205 IC50. The method, boiled down: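 Luciferase signal from a TCF/LEF-driven reporter, stably integrated in Colo 205 colon cancer cells, was measured 5 h after compound addition.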
In general terms: Reporter assays use an easily measured gene product as a stand-in for the process of interest.

Setting [1] is: Homo sapiens, COLO 205, 5 h, five hours after addition of compound.
Setting [2] is: Homo sapiens, COLO 205, 5 h, R-isomer at C2 (corresponding to C2 S-isomer), 5 h.

pIC50: −log10 of the molar value. Like-named read-outs stand apart in the source and are kept apart here.

A word on the pIC50: it is −log10 of the IC50, conventionally taken in molar units.

`Cc1nc(NCc2cnn(CCc3ccc(C(F)(F)F)nc3)c2)nc2c1NC(=O)[C@H](C)N2C` [Compound 444, (7S)-4,7,8-trimethyl-2-(((1-(2-(6-(trifluoromethyl)pyridin-3-yl)ethyl)-1H-pyrazol-4-yl)methyl)amino)-7,8-dihydropteridin-6(5H)-one]: the pIC50 under setting [1] is 6.00 to 6.52.

Turning to `Cc1nc(N[C@H]2C[C@H](Oc3ccc(C(F)(F)F)nc3)C2)nc2c1NC(=O)[C@H](COC(C)(C)C)N2C` [Compound 725, (S)-7-(tert-butoxymethyl)-4,8-dimethyl-2-((trans-3-((6-(trifluoromethyl)pyridin-3-yl)oxy)cyclobutyl)amino)-7,8-dihydropteridin-6(5H)-one], the pIC50 under setting [1] was > 6.52.

For `Cc1nc(NCc2cnn(Cc3cc(F)c(F)c(F)c3)c2)nc2c1N(C)C(=O)[C@@H](C)N2C` [Compound I-1229], the pIC50 under setting [2] is > 6.52.

On to `Cc1nc(N[C@H]2C[C@H](Sc3ccc(C(F)(F)F)cc3)C2)nc2c1N(C)C(=O)[C@H](C)N2C` [Compound 320, (7S)-4,5,7,8-tetramethyl-2-((trans-3-((4(trifluoromethyl)phenyl)thio)-cyclobutyl)-amino)-7,8-dihydropteridin-6(5H)-one], for which, under setting [1], the pIC50 was 5.30 to 6.00.

Regarding `Cc1nc(N[C@@H]2CCN(Cc3ccccc3)C2)nc2c1NC(=O)[C@H](C)N2C` [Compound 372, (7S)-2-(((R)-1-benzylpyrrolidin-3-yl)amino)-4,7,8-trimethyl-7,8-dihydropteridin-6(5H)-one], the pIC50 under setting [1] was ≤ 5.30.

As for `Cc1nc(NCc2cnn(Cc3cc(F)c(F)c(F)c3)c2)nc2c1NC(=O)[C@H](COC(C)(C)C)N2C` [Compound 741, (S)-7-(tert-butoxymethyl)-4,8-dimethyl-2-(((1-(3,4,5-trifluorobenzyl)-1H-pyrazol-4-yl)methyl)amino)-7,8-dihydropteridin-6(5H)-one], the pIC50 under setting [1] is 6.00 to 6.52.

As to `Cc1nc(N[C@H]2C[C@@H](Sc3ccc(OC(F)(F)F)cc3)C2)nc2c1NC(=O)[C@H](C)N2C` [Compound 336, (7S)-4,7,8-trimethyl-2-((cis-3-((4-(trifluoromethoxy)phenyl)thio)cyclobutyl)amino)-7,8-dihydropteridin-6(5H)-one], the pIC50 under setting [1] is 6.00 to 6.52.

Take `Cc1nc(NCc2cnn(Cc3ccccc3)c2)nc2c1NC(=O)[C@H](C)N2C` [Compound 53, (7S)-2-(((1-benzyl-1H-pyrazol-4-yl)methyl)amino)-4,7,8-trimethyl-7,8-dihydropteridin-6(5H)-one]: the pIC50 under setting [1] is > 6.52.

Regarding `Cc1nc(NC2CC(C)(OCc3cc(F)c(F)c(F)c3)C2)nc2c1NC(=O)[C@H](C)N2C` (stereo in doubt) [Compound 290, (7S)-4,7,8-trimethyl-2-((cis-3-methyl-3-((3,4,5-trifluorobenzyl)oxy)cyclobutyl)amino)-7,8-dihydropteridin-6(5H)-one], the pIC50 (five hours after addition of compound) is ≤ 5.30.

Regarding `Cc1nc(N[C@H]2C[C@H](Oc3cc(F)c(O)c(F)c3)C2)nc2c1NC(=O)[C@H](C)N2C` [Compound 349, (7S)-2-((trans-3-(3,5-difluoro-4-hydroxyphenoxy)cyclobutyl)amino)-4,7,8-trimethyl-7,8-dihydropteridin-6(5H)-one], the pIC50 under setting [1] was ≤ 5.30.

In the case of `CCN1C(=O)[C@@H](C)N(CC)c2nc(NCc3cnn(Cc4cc(F)c(F)c(F)c4)c3)ncc21` [Compound I-1349], the pIC50 under setting [2] is > 6.52.

Turning to `Cc1nc(N[C@H]2C[C@H](NS(=O)(=O)c3cc(F)c(F)c(F)c3)C2)nc2c1NC(=O)[C@H](C)N2C` [Compound 482, 3,4,5-trifluoro-N-(trans-3-(((S)-4,7,8-trimethyl-6-oxo-5,6,7,8-tetrahydropteridin-2-yl)amino)cyclobutyl)benzenesulfonamide], the pIC50 under setting [1] was ≤ 5.30.

On to `CC[C@H]1C(=O)Nc2c(C)nc(NC3CN(C(=O)c4cc(F)c(F)c(F)c4)C3)nc2N1C` [Compound 739, (S)-7-ethyl-4,8-dimethyl-2-((1-(3,4,5-trifluorobenzoyl)azetidin-3-yl)amino)-7,8-dihydropteridin-6(5H)-one], for which the pIC50 under setting [1] is 6.00 to 6.52.

As for `Cc1nc(N[C@H]2C[C@@H](Nc3ncc(C(F)(F)F)cn3)C2)nc2c1NC(=O)[C@H](C(C)C)N2C` [Compound 734, (S)-7-isopropyl-4,8-dimethyl-2-((cis-3-((5-(trifluoromethyl)pyrimidin-2-yl)amino)cyclobutyl)amino)-7,8-dihydropteridin-6(5H)-one], the pIC50 under setting [1] is 6.00 to 6.52.

Regarding `CN1C(=O)C(C)(C)N(C)c2nc(NCc3cnn(Cc4cnccc4C(F)(F)F)c3)ncc21` [Compound 236, 5,7,7,8-Tetramethyl-2-(((1-((4-(trifluoromethyl)pyridin-3-yl)methyl)-1H-pyrazol-4-yl)methyl)amino)-7,8-dihydropteridin-6(5H)-one], the pIC50 under setting [1] is > 6.52.

In the case of `CO[C@H](C)[C@H]1C(=O)Nc2c(C)nc(N[C@H]3C[C@H](N(C)c4cnc(C(F)(F)F)cn4)C3)nc2N1C` [Compound 681, (S)-7-((R)-1-methoxyethyl)-4,8-dimethyl-2-((trans-3-(methyl(5-(trifluoromethyl)pyrazin-2-yl)amino)cyclobutyl)amino)-7,8-dihydropteridin-6(5H)-one], under setting [1], the pIC50 was 6.00 to 6.52.

In the case of `Cc1nc(NCc2cnn(CCc3cc(F)cc(F)c3)c2)nc2c1NC(=O)[C@H](C)N2C` [Compound 107, (7S)-2-(((1-(3,5-difluorophenethyl)-1H-pyrazol-4-yl)methyl)amino)-4,7,8-trimethyl-7,8-dihydropteridin-6(5H)-one], the negative-log IC50 (pIC50) under setting [1] was > 6.52.

For the molecule `Cc1nc(NC2CN(C(=O)c3cnc(Cl)s3)C2)nc2c1NC(=O)[C@H](C(C)C)N2C` [Compound 633, (S)-2-((1-(2-chlorothiazole-5-carbonyl)azetidin-3-yl)amino)-7-isopropyl-4,8-dimethyl-7,8-dihydropteridin-6(5H)-one], the pIC50 under setting [1] is 5.30 to 6.00.

For `Cc1nc(NCc2cnn(Cc3ccc(Cl)nc3)c2)nc2c1NC(=O)[C@H](C(C)(C)C)N2C` [Compound 438, (7S)-7-(tert-butyl)-2-(((1-((6-chloropyridin-3-yl)methyl)-1H-pyrazol-4-yl)methyl)amino)-4,8-dimethyl-7,8-dihydropteridin-6(5H)-one], under setting [1], the pIC50 is > 6.52.

With `Cc1nc(N[C@H]2C[C@H](Oc3ccc(F)c(F)c3F)C2)nc2c1NC(=O)[C@H](C)N2C` [Compound 291, (7S)-4,7,8-trimethyl-2-((trans 3-(2,3,4-trifluorophenoxy)cyclobutyl)amino)-7,8-dihydropteridin-6(5H)-one], the pIC50 under setting [1] was > 6.52.

For `Cc1nc(N[C@H]2CC[C@H](Oc3cc(F)c(F)c(F)c3)C2)nc2c1N(C)C(=O)[C@H](C)N2C` [Compound 273, (S)-4,5,7,8-tetramethyl-2-(((1S,3S)-3-(3,4,5-trifluorophenoxy)cyclopentyl)amino)-7,8-dihydropteridin-6(5H)-one], the pIC50 under setting [1] is > 6.52.

In the case of `Cc1nc(N[C@H]2C[C@@H](Cn3nc(C4CC4)cc3C(F)(F)F)C2)nc2c1NC(=O)[C@H](C(C)C)N2C` [Compound 581, (S)-2-((cis-3-((3-cyclopropyl-5-(trifluoromethyl)-1H-pyrazol-1-yl)methyl)cyclobutyl)amino)-7-isopropyl-4,8-dimethyl-7,8-dihydropteridin-6(5H)-one], under setting [1], the pIC50 was > 6.52.

In the case of `Cc1nc(N[C@H]2C[C@@H](COc3ccc(F)c(F)c3F)C2)nc2c1NC(=O)[C@H](C)N2C` [Compound 281, (7S)-4,7,8-trimethyl-2-((cis-3-((2,3,4-trifluorophenoxy)methyl)cyclobutyl)-amino)-7,8-dihydropteridin-6(5H)-one], under setting [1], the pIC50 was > 6.52.
